Read-outs that look alike come from different tables or passages of the source. Where no end group is shown, it is not given here.
What was measured:
[1] = target: T1, Angiotensin-converting enzyme (Oryctolagus cuniculus, UniProt P12822); assay: ACE-inhibitory activity, spectrophotometric assay (Cushman & Cheung, modified); type: biochemical; conditions: synthetic peptides
T1 sequence (P12822 34-1310): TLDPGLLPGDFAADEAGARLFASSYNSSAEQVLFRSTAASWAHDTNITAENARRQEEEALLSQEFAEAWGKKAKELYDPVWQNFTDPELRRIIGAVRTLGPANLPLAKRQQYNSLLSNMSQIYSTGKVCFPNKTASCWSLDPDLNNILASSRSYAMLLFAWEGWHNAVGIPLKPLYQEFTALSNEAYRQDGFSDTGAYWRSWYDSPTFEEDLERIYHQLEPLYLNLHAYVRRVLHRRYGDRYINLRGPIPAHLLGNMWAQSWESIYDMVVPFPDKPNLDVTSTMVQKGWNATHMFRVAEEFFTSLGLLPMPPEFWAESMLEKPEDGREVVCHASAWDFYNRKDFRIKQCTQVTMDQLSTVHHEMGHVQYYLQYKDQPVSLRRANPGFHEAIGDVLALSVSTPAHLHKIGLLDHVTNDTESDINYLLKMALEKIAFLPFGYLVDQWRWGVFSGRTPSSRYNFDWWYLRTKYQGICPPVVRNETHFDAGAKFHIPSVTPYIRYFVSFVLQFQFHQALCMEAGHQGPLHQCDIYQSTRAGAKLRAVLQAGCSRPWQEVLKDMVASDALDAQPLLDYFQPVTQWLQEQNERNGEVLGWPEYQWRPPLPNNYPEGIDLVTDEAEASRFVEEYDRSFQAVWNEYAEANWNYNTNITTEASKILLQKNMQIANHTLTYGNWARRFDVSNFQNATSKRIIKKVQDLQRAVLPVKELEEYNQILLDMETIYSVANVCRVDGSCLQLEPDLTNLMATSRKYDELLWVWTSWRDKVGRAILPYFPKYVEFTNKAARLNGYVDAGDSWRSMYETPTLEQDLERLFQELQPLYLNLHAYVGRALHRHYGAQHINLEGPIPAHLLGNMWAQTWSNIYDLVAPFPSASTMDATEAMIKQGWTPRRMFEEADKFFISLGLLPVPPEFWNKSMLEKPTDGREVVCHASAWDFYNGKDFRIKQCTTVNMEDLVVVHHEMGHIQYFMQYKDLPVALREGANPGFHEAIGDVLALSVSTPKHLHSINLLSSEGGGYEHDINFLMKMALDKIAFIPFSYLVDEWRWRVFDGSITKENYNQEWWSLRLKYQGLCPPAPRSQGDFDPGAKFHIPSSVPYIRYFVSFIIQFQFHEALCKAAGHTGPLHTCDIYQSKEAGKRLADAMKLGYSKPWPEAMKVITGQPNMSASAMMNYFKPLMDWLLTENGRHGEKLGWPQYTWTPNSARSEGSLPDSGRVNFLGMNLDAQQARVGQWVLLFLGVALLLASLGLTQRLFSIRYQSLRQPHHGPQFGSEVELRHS
Protocol: ACE-inhibitory activity was measured by Cushman & Cheung 1971 (Biochemical Pharmacology, 20, 1637-1648) spectrophotometric assay with some modifications, as reported by (Quirós et al., 2007). For this purpose, protein concentration of the aliquots of the pepsin hydrolysate was determined by the Kjeldahl method. The protein content of the fractions collected from HPLC was estimated by the bicinchoninic acid assay (Pierce, Rockford, IL, USA) using bovine serum albumin, as standard, and peptide concentration of the chemically synthesized peptides was based in the dry weight of the peptides. Chemical synthesized peptides were purchased from GenScript Corp. (Piscataway, NJ, USA).

[2] = test system: SHR rats; assay: Systolic blood pressure in spontaneously hypertensive rats, tail-cuff method; type: in vivo; conditions: single oral dose 5 mg kg^-1, followed up to 24 hours
Protocol: All procedures were carried out in accordance with conventional guidelines for experimentation with animals. Twelve-week old male SHR rats were used (Janvier, France); they were housed in groups of four per cage in a regulated environment with a 12 h light/dark cycle in a standard experimental laboratory of the Animal Experimentation Service of the Salamanca University (N°PAE SA001). The animals were deprived of solid diet 12 hours before experiments began but received a nutritive solution of 8% sucrose in 0.2% NaCl to avoid excessive dehydratation. The rats received a single dose of the synthesized peptides or zofenopril (5 mg kg^-1) dissolved in ultrapure water and the control group received the same volume of water. Systolic blood pressure (SBP) was measured in awake rats with an automated multichannel system, using the tail-cuff method with a photoelectric sensor (Niprem 546, Cibertec SA, Spain) as described in Guerrero et al., 2003 (Journal of Cardiovascular Pharmacology 42: 348-355). SBP was measured before administration, and also at 2, 4, 6, 8, 10 and 24 hours post-administration. The changes in SBP were expressed as the differences before and after administration of the different products. Unpaired student's t-test was used to compare groups.

[3] = target: ACE (Homo sapiens, UniProt P12821); conditions: cited from earlier work; for IC50: literature values; for ACE-inhibitory activity: literature, in vitro
[4] = test system: SHR; conditions: literature; cited from earlier work
[5] = test system: human volunteers; conditions: literature; cited from earlier work
[6] = mean ± standard error (n=3), read-out: IC50± SE

Sequence of ACE (P12821 30-1306, species assumed): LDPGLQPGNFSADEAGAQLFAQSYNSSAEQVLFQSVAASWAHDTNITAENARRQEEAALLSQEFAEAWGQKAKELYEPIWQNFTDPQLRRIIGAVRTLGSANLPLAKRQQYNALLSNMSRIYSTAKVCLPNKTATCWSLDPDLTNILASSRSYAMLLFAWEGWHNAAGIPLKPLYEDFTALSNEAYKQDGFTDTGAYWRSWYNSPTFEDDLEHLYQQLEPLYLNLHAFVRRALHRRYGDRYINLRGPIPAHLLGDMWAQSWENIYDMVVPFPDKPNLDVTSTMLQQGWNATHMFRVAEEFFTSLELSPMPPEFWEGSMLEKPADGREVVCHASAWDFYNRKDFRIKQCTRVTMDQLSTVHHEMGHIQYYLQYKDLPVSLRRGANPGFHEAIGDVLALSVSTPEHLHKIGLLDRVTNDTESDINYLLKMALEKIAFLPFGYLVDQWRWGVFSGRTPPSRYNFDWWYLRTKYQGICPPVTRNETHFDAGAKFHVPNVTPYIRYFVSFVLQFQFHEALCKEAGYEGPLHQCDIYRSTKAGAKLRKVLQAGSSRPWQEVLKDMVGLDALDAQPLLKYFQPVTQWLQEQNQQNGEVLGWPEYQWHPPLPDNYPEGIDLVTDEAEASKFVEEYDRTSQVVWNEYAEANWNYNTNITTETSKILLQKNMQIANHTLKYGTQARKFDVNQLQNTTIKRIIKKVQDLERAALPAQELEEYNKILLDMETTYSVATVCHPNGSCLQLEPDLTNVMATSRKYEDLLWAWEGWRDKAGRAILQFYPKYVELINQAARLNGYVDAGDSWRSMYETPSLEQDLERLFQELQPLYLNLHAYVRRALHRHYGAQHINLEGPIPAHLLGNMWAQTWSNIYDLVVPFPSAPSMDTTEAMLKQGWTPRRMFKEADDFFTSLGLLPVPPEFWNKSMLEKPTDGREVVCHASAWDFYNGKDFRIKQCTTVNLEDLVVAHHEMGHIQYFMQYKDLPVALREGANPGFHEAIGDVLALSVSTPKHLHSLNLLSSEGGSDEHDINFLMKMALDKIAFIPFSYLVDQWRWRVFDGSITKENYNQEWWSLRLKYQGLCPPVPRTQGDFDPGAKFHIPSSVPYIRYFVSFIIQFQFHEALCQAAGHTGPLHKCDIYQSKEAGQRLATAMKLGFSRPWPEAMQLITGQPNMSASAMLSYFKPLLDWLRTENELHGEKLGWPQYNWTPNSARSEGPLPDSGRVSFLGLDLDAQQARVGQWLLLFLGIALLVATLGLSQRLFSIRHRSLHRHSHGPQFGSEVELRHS

Row | IC50 [1, 6] [µM] | Substance | IC50 [3] [µM] | other results
1 | 6.58 ± 0.5 | AYFYPEL [AYFYPEL] |  | IC50 ([1]; values in text, read-out: IC50): < 20 µM
2 | 476 ± 41.7 | FVAPFPEV [FVAPFPEV] |  | 
3 | 34.4 ± 2.22 | HLPLPLL [HLPLPLL] |  | 
4 |  | SEQ ID NO: 3: αs1-CN peptide previously described as an ACE inhibitor (DAYPSGAW) | 98 | 
5 |  | SEQ ID NO: 5: ACE-inhibitory peptide previously described in the literature, shares five residues with SEQ ID NO: 4 (ENLLRF) | 82.4 | 
6 |  | SEQ ID NO: 7: literature ACE-inhibitory sequence included in peptide SEQ ID NO: 6 (VTSTAV) | 52 | 
7 |  | SEQ ID O: 8: literature ACE-inhibitory peptide whose C-terminal tripeptide is LQY (FPQYLQY) | 14 | 
8 | 363 ± 23.6 | VAPFPEVF [VAPFPEVF] |  | 
9 | 20.1 ± 1.25 | YQKFPQY [YQKFPQY] |  | IC50 ([1]; values in text, read-out: IC50): < 20 µM
10 |  | αs1-casein f(23-27): literature peptide with ACE-inhibitory activity but no hypotensive effect in SHR (FFVAP; UniProt P02662 38-42, looked up, fragment) |  | ACE-inhibitory activity [3]: potent ACE-inhibitory activity; hypotensive effect in SHR [4]: no hypotensive effect
11 |  | β-lactoglobulin f(142-148): literature peptide with in vitro ACE-inhibitory activity (ALPMHIR; UniProt P02754 158-164, looked up, fragment) |  | ACE-inhibitory activity [3]: in vitro ACE-inhibitory activity; effect in human volunteers [5]: did not have effect

Row | Substance | IC50 [1, 6] [µM] | IC50 [3] [µM] | other results
12 | RYLGY [RYLGY] | 0.71 ± 0.08 |  | IC50 ([1]; values in text, read-out: IC50): < 20 µM; antihypertensive effect (change in SBP), in words [2]: lowered SBP in a progressive and maintained manner
